Consider 31 molecules from patent US11040981B2, “Pyrrolotriazine compounds and methods of inhibiting TAM kinases” (Syros Pharmaceuticals, Inc., priority 2017, dated 2021).

Bounds are passed on as bounds.

In one test the target is T1, FLT3 (Homo sapiens, UniProt P36888).
T1 sequence (P36888 27-993): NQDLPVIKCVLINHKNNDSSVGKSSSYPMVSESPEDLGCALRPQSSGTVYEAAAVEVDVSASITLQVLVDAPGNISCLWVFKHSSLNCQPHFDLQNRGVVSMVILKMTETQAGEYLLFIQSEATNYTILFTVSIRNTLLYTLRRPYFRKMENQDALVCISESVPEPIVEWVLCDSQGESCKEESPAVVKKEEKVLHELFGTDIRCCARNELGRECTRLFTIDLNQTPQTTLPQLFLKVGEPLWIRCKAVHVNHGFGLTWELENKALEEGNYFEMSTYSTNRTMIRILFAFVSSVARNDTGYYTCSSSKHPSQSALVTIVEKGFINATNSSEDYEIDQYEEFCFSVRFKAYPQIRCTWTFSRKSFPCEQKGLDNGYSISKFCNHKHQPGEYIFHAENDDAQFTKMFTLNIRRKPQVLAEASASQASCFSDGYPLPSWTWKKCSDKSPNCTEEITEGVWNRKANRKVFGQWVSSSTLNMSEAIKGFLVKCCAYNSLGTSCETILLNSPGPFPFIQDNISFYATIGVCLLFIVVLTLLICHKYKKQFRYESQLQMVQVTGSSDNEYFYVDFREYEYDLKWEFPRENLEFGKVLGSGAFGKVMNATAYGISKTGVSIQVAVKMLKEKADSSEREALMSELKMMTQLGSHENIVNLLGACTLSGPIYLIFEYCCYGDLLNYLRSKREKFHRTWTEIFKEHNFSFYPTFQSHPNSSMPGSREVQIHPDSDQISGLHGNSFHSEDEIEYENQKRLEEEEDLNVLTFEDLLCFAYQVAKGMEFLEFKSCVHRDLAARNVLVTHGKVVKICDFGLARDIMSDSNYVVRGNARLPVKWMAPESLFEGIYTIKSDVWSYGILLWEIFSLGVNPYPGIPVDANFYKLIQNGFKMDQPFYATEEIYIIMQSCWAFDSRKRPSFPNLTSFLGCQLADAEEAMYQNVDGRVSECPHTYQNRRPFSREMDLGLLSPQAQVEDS
The test can be described thus: TR-FRET kinase activity assay, FLT3. In kind it is biochemical. The settings on record: ATP at Km, 60 minutes. Summed up:
(§1)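 Recombinant human kinases, fluorescent peptide substrate, ATP at Km; 1 h RT, pH 7.5. EDTA-quenched, Eu antibody added, TR-FRET read; IC50 determined.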

The next test addresses T2, TYRO3 (Homo sapiens, UniProt Q06418).
T2 sequence (Q06418 41-890): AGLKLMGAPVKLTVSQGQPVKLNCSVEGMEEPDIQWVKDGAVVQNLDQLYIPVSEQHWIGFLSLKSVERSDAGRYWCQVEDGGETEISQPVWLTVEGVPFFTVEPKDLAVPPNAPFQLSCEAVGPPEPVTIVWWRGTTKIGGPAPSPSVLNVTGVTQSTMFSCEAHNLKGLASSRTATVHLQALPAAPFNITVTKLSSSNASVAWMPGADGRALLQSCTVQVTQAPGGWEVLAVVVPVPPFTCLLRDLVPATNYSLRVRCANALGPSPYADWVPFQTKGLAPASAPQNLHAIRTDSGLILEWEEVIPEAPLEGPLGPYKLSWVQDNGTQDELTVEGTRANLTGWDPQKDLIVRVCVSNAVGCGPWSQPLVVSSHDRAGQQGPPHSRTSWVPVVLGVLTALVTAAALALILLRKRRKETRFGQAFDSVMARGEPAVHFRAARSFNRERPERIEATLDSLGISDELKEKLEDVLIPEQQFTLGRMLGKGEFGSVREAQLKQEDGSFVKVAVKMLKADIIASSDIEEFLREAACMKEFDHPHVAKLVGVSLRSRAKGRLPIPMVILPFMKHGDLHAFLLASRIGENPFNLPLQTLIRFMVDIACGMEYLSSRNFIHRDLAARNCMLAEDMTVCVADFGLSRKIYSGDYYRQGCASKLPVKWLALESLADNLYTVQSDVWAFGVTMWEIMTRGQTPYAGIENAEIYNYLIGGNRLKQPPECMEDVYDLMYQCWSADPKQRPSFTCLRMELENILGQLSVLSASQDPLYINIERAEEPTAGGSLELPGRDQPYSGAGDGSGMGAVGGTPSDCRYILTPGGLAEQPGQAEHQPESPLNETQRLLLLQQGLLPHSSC
Nature of the test: TR-FRET kinase activity assay, TYRO3. In kind it is biochemical. Particulars: ATP at Km, 60 minutes. Summed up:
as §1

With `C[C@@H](CC(F)(F)F)Nc1ncc2c(-c3ccc(S(C)(=O)=O)nc3)cc([C@H]3CC[C@H](O)CC3)n2n1` [Compound 297], the IC50 on FLT3 and at TYRO3 was at most 100 nM in each case.
Turning to `C[C@@H](CC(F)(F)F)Nc1ncc2c(-c3cncc(C(=O)O)c3)cc([C@H]3CC[C@H](O)CC3)n2n1` [Compound 298], the IC50 against FLT3 was 1000 to 10000 nM; on TYRO3, at most 100 nM.
Turning to `CC(CC(F)(F)F)Nc1ncc2c(-c3cnc(C(=O)O)nc3)cc(C3CCC(O)CC3)n2n1` (centres unmarked) [Compound 299], the IC50 at FLT3 was 1000 to 10000 nM; on TYRO3, at most 100 nM.
In the case of `COC[C@H](C)Nc1ncc2c(-c3ccc(CN4CCOCC4)cc3)cc([C@H]3CC[C@H](NC(C)=O)CC3)n2n1` [Compound 300, N-((trans)-4-(2-(((S)-1-methoxypropan-2-yl)amino)-5-(4-(morpholinomethyl)phenyl)pyrrolo[2,1-f][1,2,4]triazin-7-yl)cyclohexyl)acetamide], the values for the IC50 against FLT3 and on TYRO3 were 100 to 1000 nM and at most 100 nM, respectively.
The corresponding values for `COC[C@H](C)Nc1ncc2c(-c3ccc(CN4CCOCC4)cc3)cc([C@H]3CC[C@H](NS(C)(=O)=O)CC3)n2n1` [Compound 301] are at most 100 nM and at most 100 nM.
The corresponding values for `COC[C@H](C)Nc1ncc2c(-c3cnn(C4CN(CC(F)(F)F)C4)c3)cc([C@H]3CC[C@H](O)CC3)n2n1` [Compound 302] are 100 to 1000 nM and at most 100 nM.
The corresponding values for `COC[C@H](C)Nc1ncc2c(-c3cnn(CC4CNC(=O)C4)c3)cc([C@H]3CC[C@H](O)CC3)n2n1` (some centres unmarked) [Compound 303] are 100 to 1000 nM and at most 100 nM.
As to `CNC(=O)c1cncc(-c2cc([C@H]3CC[C@H](O)CC3)n3nc(N[C@@H](C)CC(F)(F)F)ncc23)c1` [Compound 304], the IC50 is 1000 to 10000 nM on FLT3 and at most 100 nM against TYRO3.
For `COC[C@H](C)Nc1ncc2c(-c3cnn(Cc4cnccn4)c3)cc([C@H]3CC[C@H](O)CC3)n2n1` [Compound 305], the IC50 against FLT3 was 100 to 1000 nM; against TYRO3, at most 100 nM.
Take `COC[C@H](C)Nc1ncc2c(-c3cnn(Cc4cnc(C)cn4)c3)cc([C@H]3CC[C@H](O)CC3)n2n1` [Compound 306]: the IC50 is 100 to 1000 nM against FLT3 and at most 100 nM against TYRO3.
In the case of `CNC(=NC#N)N[C@H]1CC[C@H](c2cc(-c3ccc(CN4CCOCC4)cc3)c3cnc(N[C@@H](C)COC)nn32)CC1` [Compound 307], the IC50 on FLT3 and against TYRO3 was at most 100 nM each time.
With `COC[C@H](C)Nc1ncc2c(-c3cc(C)nc(C)c3)cc([C@H]3CC[C@H](O)CC3)n2n1` [Compound 308], the IC50 is 1000 to 10000 nM against FLT3 and at most 100 nM on TYRO3.
The corresponding values for `Cc1cc(-c2cc([C@H]3CC[C@H](O)CC3)n3nc(N[C@@H](C)C(F)F)ncc23)ccn1` [Compound 309] are 100 to 1000 nM and at most 100 nM.
As for `C[C@@H](CC(F)(F)F)Nc1ncc2c(-c3cncc(C(=O)N(C)C)c3)cc([C@H]3CC[C@H](O)CC3)n2n1` [Compound 310], the IC50 is 100 to 1000 nM against FLT3 and at most 100 nM on TYRO3.
With `C[C@@H](CC(F)(F)F)Nc1ncc2c(-c3cncc(C(=O)N4CCOCC4)c3)cc([C@H]3CC[C@H](O)CC3)n2n1` [Compound 311], the IC50 at FLT3 was 100 to 1000 nM; against TYRO3, at most 100 nM.
Take `Cc1nnc(Cn2cc(-c3cc([C@H]4CC[C@H](O)CC4)n4nc(N[C@@H](C)COC(F)F)ncc34)cn2)o1` [Compound 312]: the IC50 against FLT3 and against TYRO3 was at most 100 nM each time.
With `Cc1cc(-c2cc([C@H]3CC[C@H](O)CC3)n3nc(N[C@@H](C)COC(F)F)ncc23)ccn1` [Compound 313], the IC50 is 100 to 1000 nM against FLT3 and at most 100 nM against TYRO3.
The corresponding values for `COC[C@H](C)Nc1ncc2c(-c3cnn(Cc4ccc(S(C)(=O)=O)cc4)c3)cc([C@H]3CC[C@H](O)CC3)n2n1` [Compound 314] are at most 100 nM and at most 100 nM.
The corresponding values for `COC[C@H](C)Nc1ncc2c(-c3cnn([C@@H]4CCNC4=O)c3)cc([C@H]3CC[C@H](O)CC3)n2n1` [Compound 315] are 100 to 1000 nM and at most 100 nM.
The corresponding values for `CNc1c(N[C@H]2CC[C@H](c3cc(-c4ccc(CN5CCOCC5)cc4)c4cnc(N[C@@H](C)COC)nn43)CC2)c(=O)c1=O` [Compound 316, 3-(((trans)-4-(2-(((S)-1-methoxypropan-2-yl)amino)-5-(4-(morpholinomethyl)phenyl)pyrrolo[2,1-f][1,2,4]triazin-7-yl)cyclohexyl)amino)-4-(methylamino)cyclobut-3-ene-1,2-dione] are at most 100 nM and at most 100 nM.
As to `CNC(=O)c1ccc(-c2cc([C@H]3CC[C@H](O)CC3)n3nc(N[C@@H](C)COC)ncc23)cn1` [Compound 317], the half-inhibitory concentration (IC50) on FLT3 and against TYRO3 was at most 100 nM throughout.
As for `COC[C@H](C)Nc1ncc2c(-c3cnn(C(C)(C)C(=O)N4CCC5(COC5)C4)c3)cc([C@H]3CC[C@H](O)CC3)n2n1` [Compound 318], the IC50 at FLT3 was 1000 to 10000 nM; at TYRO3, at most 100 nM.
For the molecule `COC[C@H](C)Nc1ncc2c(-c3cnn(C(C)(C)C(=O)C4C[C@H]5COC[C@H]5C4)c3)cc([C@H]3CC[C@H](O)CC3)n2n1` (some centres unmarked) [Compound 319], the IC50 is 1000 to 10000 nM against FLT3 and at most 100 nM against TYRO3.
Take `COC[C@H](C)Nc1ncc2c(-c3cnn(C(C)(C)C(=O)N4C[C@@H](C)O[C@@H](C)C4)c3)cc([C@H]3CC[C@H](O)CC3)n2n1` [Compound 320]: the IC50 on FLT3 was 1000 to 10000 nM; against TYRO3, at most 100 nM.
The corresponding values for `Cc1ccc(-c2cc([C@H]3CC[C@H](O)CC3)n3nc(N[C@@H](C)COC(F)F)ncc23)cn1` [Compound 321] are at most 100 nM and at most 100 nM.
For `COCC(C)Nc1ncc2c(-c3cnn(Cc4ccc(=O)n(C)c4)c3)cc(C3CCC(O)CC3)n2n1` (centres unmarked) [Compound 322], the figures for the IC50 against FLT3 and against TYRO3 were 100 to 1000 nM and at most 100 nM, respectively.
The corresponding values for `COC[C@H](C)Nc1ncc2c(-c3cnn(C4CCS(=O)(=O)CC4)c3)cc([C@H]3CC[C@H](O)CC3)n2n1` [Compound 323] are 100 to 1000 nM and at most 100 nM.
The corresponding values for `COC[C@H](C)Nc1ncc2c(-c3cnn(C[C@H]4CCC(=O)N4)c3)cc([C@H]3CC[C@H](O)CC3)n2n1` [Compound 324] are 100 to 1000 nM and at most 100 nM.
`COC[C@H](C)Nc1ncc2c(-c3cnn(C(C)(C)C(=O)N4CC5(COC5)C4)c3)cc([C@H]3CC[C@H](O)CC3)n2n1` [Compound 326]: the IC50 against FLT3 was 1000 to 10000 nM; at TYRO3, at most 100 nM.
The corresponding values for `COC[C@H](C)Nc1ncc2c(-c3cnn(C(C)(C)C(=O)N4C[C@H]5CC[C@@H](C4)O5)c3)cc([C@H]3CC[C@H](O)CC3)n2n1` [Compound 327] are 1000 to 10000 nM and at most 100 nM.
The corresponding values for `COC[C@H](C)Nc1ncc2c(-c3cnn(C(C)(C)C(=O)N4C[C@H](C)O[C@@H](C)C4)c3)cc([C@H]3CC[C@H](O)CC3)n2n1` [Compound 328] are 1000 to 10000 nM and at most 100 nM.
